Test results as given in patent US11878970B2, “Allosteric chromenone inhibitors of phosphoinositide 3-kinase (PI3K) for the treatment of disease” (Petra Pharma Corporation, priority 2021, dated 2024).

Experiments:
[1] = biological target: T1, PI3K-α (PIK3CA) wild-type (WT), p110α/p85α complex (Homo sapiens, UniProt P42336); test: PI3K-alpha kinase (PIK3CA) biochemical activity, ADP-Glo, wild-type; conditions: Soy PI lipid substrate
T1 construct: Recombinant, catalytically active human full length PIK3KA Wild-type and H1047R mutant; 6×His (N); purchased EMD Millipore Sigma 14-602M
Summary of the method: (§1)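 ADP formation measured by ADP-Glo luminescence after reaction at 27 °C to about 10% ATP turnover, using 20 uM ATP, 50 uM PIP2diC8 or soy PI lipid, HEPES pH 7.4 with MgCl2. Enzyme (1-5 nM WT or H1047R p110α/p85α) and compound preincubated 1 h first; 10-point 1:3 curves fitted four-parameter for IC50.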

[2] = biological target: T2, PI3K-α (PIK3CA) H1047R mutant, p110α/p85α complex (Homo sapiens, UniProt P42336, H1047R); test: PI3K-alpha kinase (PIK3CA) biochemical activity, ADP-Glo, H1047R mutant; conditions: Soy PI lipid substrate
T2 construct: Recombinant, catalytically active human full length PIK3KA Wild-type and H1047R mutant; 6×His (N); purchased EMD Millipore Sigma 14-792M
T2 sequence (P42336 whole entry H1047R): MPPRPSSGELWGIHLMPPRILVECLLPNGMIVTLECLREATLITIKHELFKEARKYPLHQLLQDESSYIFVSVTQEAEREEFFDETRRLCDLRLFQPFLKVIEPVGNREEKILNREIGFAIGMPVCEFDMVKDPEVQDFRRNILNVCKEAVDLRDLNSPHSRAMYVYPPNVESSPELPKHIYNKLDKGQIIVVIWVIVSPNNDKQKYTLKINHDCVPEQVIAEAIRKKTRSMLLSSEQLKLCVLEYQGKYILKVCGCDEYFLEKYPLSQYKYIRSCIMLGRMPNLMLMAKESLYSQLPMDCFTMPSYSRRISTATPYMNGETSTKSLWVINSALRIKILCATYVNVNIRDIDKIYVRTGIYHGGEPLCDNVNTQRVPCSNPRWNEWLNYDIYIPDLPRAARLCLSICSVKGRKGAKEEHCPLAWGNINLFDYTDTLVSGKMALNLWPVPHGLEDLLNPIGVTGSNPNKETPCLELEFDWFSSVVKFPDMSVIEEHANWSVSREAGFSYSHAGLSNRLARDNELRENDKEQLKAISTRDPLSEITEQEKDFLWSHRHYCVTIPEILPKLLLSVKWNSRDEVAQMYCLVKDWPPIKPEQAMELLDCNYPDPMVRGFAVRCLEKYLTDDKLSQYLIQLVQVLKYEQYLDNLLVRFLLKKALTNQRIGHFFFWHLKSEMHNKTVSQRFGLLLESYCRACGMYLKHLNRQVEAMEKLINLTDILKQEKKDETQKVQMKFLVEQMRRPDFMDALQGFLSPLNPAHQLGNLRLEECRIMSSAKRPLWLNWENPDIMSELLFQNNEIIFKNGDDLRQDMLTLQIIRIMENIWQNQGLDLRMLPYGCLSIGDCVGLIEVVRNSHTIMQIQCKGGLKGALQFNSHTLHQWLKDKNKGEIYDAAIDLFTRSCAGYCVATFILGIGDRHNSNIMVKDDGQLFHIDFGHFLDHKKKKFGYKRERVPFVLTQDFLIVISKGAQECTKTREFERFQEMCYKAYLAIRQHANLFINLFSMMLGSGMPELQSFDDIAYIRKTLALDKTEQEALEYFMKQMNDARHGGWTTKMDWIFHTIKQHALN
T2 sequence (P27986 whole entry partner): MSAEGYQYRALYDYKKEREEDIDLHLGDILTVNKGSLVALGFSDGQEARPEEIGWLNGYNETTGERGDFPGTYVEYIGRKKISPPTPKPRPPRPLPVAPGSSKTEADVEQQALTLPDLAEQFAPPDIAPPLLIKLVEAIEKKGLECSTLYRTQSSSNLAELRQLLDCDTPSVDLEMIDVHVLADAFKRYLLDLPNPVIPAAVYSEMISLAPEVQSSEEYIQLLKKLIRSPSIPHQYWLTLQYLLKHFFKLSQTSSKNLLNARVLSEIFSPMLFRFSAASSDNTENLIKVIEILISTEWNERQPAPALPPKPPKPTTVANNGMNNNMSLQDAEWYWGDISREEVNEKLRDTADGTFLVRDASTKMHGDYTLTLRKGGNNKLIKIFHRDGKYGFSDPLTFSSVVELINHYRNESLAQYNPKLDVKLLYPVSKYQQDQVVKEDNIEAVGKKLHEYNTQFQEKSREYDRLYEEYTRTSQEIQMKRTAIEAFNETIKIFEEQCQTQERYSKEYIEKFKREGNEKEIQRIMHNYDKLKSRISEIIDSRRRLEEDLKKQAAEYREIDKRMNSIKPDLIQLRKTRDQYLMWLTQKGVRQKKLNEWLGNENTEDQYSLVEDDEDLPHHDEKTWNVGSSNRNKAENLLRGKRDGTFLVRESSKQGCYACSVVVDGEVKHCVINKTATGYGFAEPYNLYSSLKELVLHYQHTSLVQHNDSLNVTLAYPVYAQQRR
Summary of the method: as §1

[3] = biological target: PI3K-α (PIK3CA) in MDA-MB-453 cells (Homo sapiens, UniProt P42336); test: PI3K-alpha kinase (PIK3CA) in vitro cell based assay, MDA-MB-453 cells, SureFire Ultra AlphaLisa; conditions: read-out: PI3K-α (PIK3CA) in vitro cell based assay IC50
Sequence of PI3K-α (PIK3CA) in MDA-MB-453 cells (P27986 2-724): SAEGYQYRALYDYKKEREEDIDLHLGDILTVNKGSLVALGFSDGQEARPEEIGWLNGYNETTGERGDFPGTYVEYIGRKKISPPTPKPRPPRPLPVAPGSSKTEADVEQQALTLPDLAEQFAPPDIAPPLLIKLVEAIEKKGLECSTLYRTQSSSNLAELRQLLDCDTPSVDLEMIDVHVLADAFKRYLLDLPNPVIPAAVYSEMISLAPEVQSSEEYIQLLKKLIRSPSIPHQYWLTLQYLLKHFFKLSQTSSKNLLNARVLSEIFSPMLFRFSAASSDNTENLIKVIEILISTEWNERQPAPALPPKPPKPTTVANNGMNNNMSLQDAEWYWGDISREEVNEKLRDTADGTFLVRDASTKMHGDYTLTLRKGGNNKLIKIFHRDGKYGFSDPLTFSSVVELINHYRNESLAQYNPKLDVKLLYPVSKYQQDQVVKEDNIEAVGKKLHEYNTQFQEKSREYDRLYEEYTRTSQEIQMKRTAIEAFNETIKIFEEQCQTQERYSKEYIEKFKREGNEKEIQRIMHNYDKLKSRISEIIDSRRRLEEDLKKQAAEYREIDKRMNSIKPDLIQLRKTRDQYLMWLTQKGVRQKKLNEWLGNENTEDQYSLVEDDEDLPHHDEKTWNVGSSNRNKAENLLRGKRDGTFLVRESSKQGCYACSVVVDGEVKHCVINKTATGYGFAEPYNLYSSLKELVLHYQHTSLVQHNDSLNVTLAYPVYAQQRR
Sequence of PI3K-α (PIK3CA) in MDA-MB-453 cells (P42336 whole entry): as the sequence (P42336 whole entry H1047R) above, with R1047H counted along it
Experimental: PI3K-Alpha Kinase (PIK3CA) Activity In Vitro Cell Based Assay and Determining IC50 Values for Inhibitors
The MDA-MB-453 (ATCC-HTB-131) cell line was obtained from the American Type Culture Collection (Manassas, VA). Cells were maintained in Dulbecco's Modified Eagle Media (DMEM, Gibco 11965-092) supplemented with 10% Fetal Bovine Serum, heat inactivated (FBS HI, Gibco 10082-147), 1× non-essential amino acids (NEAA, Gibco 11140-050), and 1 mM sodium pyruvate (Gibco 11360-070). Cultures were maintained in a humidified incubator at 37° C. under 5% CO2/95% air.
For compound testing in 0% FBS, MDA-MB-453 cells were seeded at a density of 1.5×10^4 cells per well in white 384-well plates in 20 μl of Minimum Essential Media (MEM) assay media with 1×NEAA, 1 mM sodium pyruvate, and 1 μg/mL human insulin (Sigma I9278). Compounds dissolved in 10 mM stock solutions in DMSO were serially diluted 1:3 in DMSO to generate a 10-point dilution series and plated using an acoustic liquid handler system (Echo 550 Series Liquid Handler, Labcyte). A 5× intermediate compound dilution plate in MEM with 1×NEAA and 1 mM sodium pyruvate (150 μM starting compound concentration in 1.5% DMSO) was then prepared. Five μl of the intermediate serially diluted compounds were added to the cell plate to final concentrations ranging from […] in 0.3% DMSO. 0.3% DMSO alone was used to establish the maximum (MAX) signal and GDC-0032 at a final concentration of 1 μM was used as a reference compound for the minimum (MIN) signal. After 3 hours treatment, the medium was removed, and the cells lysed in 10 μL of 1× SureFire Lysis buffer with shaking for 10 minutes at room temperature. The Acceptor Mix (Reaction Buffer 1+Reaction Buffer 2+Activation Buffer+SureFire Ultra Acceptor Beads) was prepared by diluting Activation buffer 25-fold in combined Reaction Buffer 1 and Reaction Buffer 2. The Acceptor beads were diluted 50-fold in the combined Reaction Buffers. Five μL of Acceptor Mix was added to each well, the plate was sealed and covered with foil and incubated for 1 hour at room temperature. The Donor Mix (dilution buffer+SureFire Ultra Donor Beads) was prepared by diluting Donor Beads 50-fold in dilution buffer. Five μL of the Donor Mix was added to each well and the plate sealed and covered with foil and incubated for 1 hour at room temperature in the dark. The plates were read on a Neo2 plate reader instrument from Biotek using standard AlphaLisa settings. Compounds were tested in duplicate and the average % inhibition at each compound concentration was used to generate a single dose response curve. The data were processed using the Genedata-Screener tool. Relative IC50 values were determined using luminescence units by calculating percent inhibition with respect to the in-plate “MIN” (GDC-0032 reference control) and “MAX” (DMSO) controls. The data was analyzed using a 4-parameter nonlinear logistic equation (four-parameter logistic concentration-response curve): Y=bottom+[(top−bottom)/1+(X/IC50)slope] where Y=% inhibition, X=concentration of inhibitor, bottom=minimum value of y attained by curve-fit, top=maximum value of y attained by curve-fit and slope=steepness of curve at the IC50. % Inhibition=[(signal at X−median Min)/(median Max−median Min)]×100 IC50: concentration of compound that reduces a given response (ligand binding, enzyme response) by 50%. Relative IC50: concentration giving half the compound's maximum response.

IC50 [1] [nM]	IC50 [2] [nM]	IC50 [3] [nM]	SMILES
1000 to 5000	< 500	< 50	Cc1cc(C(C)Nc2ccccc2C(=O)O)c2oc(-c3ccc4cc[nH]c4c3)c(C)c(=O)c2c1 (single isomer, unassigned) [Example 90, 2-[1-[2-(1H-Indol-6-yl)-3,6-dimethyl-4-oxo-chromen-8-yl]ethylamino]benzoic acid]
> 10000	500 to 1000	100 to 500	Cc1cc([C@@H](C)Nc2cccnc2C(=O)O)c2oc(-c3nn(C)c4ccccc34)cc(=O)c2c1 [Example 232, 3-[[(1R)-1-[6-Methyl-2-(1-methylindazol-3-yl)-4-oxo-chromen-8-yl]ethyl]amino]pyridine-2-carboxylic acid]
1000 to 5000	< 500	50 to 100	Cc1cc(C(C)Nc2ccccc2C(=O)O)c2oc(-c3cnn4cccnc34)cc(=O)c2c1 (single isomer, unassigned) [Example 34, 2-[1-(6-Methyl-4-oxo-2-pyrazolo[1,5-a]pyrimidin-3-yl-chromen-8-yl)ethylamino]benzoic acid]
< 500	< 500	50 to 100	Cc1cc([C@@H](C)Nc2ccc(Cl)cc2C(=O)O)c2oc(-c3ccc4c(cnn4C)c3)c(C)c(=O)c2c1 [Example 259, 5-Chloro-2-[[(1R)-1-[3,6-dimethyl-2-(1-methylindazol-5-yl)-4-oxo-chromen-8-yl]ethyl]amino]benzoic acid]
500 to 1000	< 500	< 50	Cc1cc([C@@H](C)Nc2ccccc2C(=O)O)c2oc(-c3ccc4nc(C)oc4c3)c(C)c(=O)c2c1 [Example 261, 2-[[(1R)-1-[3,6-Dimethyl-2-(2-methyl-1,3-benzoxazol-6-yl)-4-oxo-chromen-8-yl]ethyl]amino]benzoic acid]
< 500	< 500	< 50	Cc1cc([C@@H](C)Nc2ccc(Cl)nc2C(=O)O)c2oc(-c3cc4cccnc4[nH]3)c(C)c(=O)c2c1 [Example 247, 6-Chloro-3-[[(1R)-1-[3,6-dimethyl-4-oxo-2-(1H-pyrrolo[2,3-b]pyridin-2-yl)chromen-8-yl]ethyl]amino]pyridine-2-carboxylic acid]
1000 to 5000	< 500	50 to 100	Cc1cc([C@@H](C)Nc2ccc(C)nc2C(=O)O)c2oc(-c3ccc4nc(C)sc4n3)c(C)c(=O)c2c1 [Example 265, 3-[[(1R)-1-[3,6-Dimethyl-2-(2-methylthiazolo[5,4-b]pyridin-5-yl)-4-oxo-chromen-8-yl]ethyl]amino]-6-methyl-pyridine-2-carboxylic acid]
5000 to 10000	5000 to 10000	> 500	Cc1cc(C(C)Nc2ccccc2C(=O)O)c2oc(-c3ccc4nccn4n3)cc(=O)c2c1 (single isomer, unassigned) [Example 35, 2-[1-(2-Imidazo[1,2-b]pyridazin-6-yl-6-methyl-4-oxo-chromen-8-yl)ethylamino]benzoic acid]
500 to 1000	< 500	50 to 100	Cc1cc(C(C)Nc2cccc(F)c2C(=O)O)c2oc(-c3nn(C)c4ccccc34)cc(=O)c2c1 (single isomer, unassigned) [Example 189, 2-Fluoro-6-[1-[6-methyl-2-(1-methylindazol-3-yl)-4-oxo-chromen-8-yl]ethylamino]benzoic acid]
1000 to 5000	500 to 1000	50 to 100	Cc1cc([C@@H](C)Nc2cccnc2C(=O)O)c2oc(-c3ccc4nn(C)cc4c3)c(C)c(=O)c2c1 [Example 240, 3-[[(1R)-1-[3,6-Dimethyl-2-(2-methylindazol-5-yl)-4-oxo-chromen-8-yl]ethyl]amino]pyridine-2-carboxylic acid]
1000 to 5000	< 500	< 50	Cc1cc([C@@H](C)Nc2cccc(F)c2C(=O)O)c2oc(-c3ccc4nc(C)sc4n3)cc(=O)c2c1 [Example 257, 2-Fluoro-6-[[(1R)-1-[6-methyl-2-(2-methylthiazolo[5,4-b]pyridin-5-yl)-4-oxo-chromen-8-yl]ethyl]amino]benzoic acid]
5000 to 10000	< 500	50 to 100	Cc1cc(C(C)Nc2ccccc2C(=O)O)c2oc(-c3cnc4c(c3)OCCO4)cc(=O)c2c1 (single isomer, unassigned) [Example 163, 2-[1-[2-(2,3-Dihydro-[1,4]dioxino[2,3-b]pyridin-7-yl)-6-methyl-4-oxo-chromen-8-yl]ethylamino]benzoic acid]

SMILES	IC50 [1] [nM]	IC50 [2] [nM]	IC50 [3] [nM]
Cc1cc(C(C)Nc2ccccc2C(=O)O)c2oc(-c3ccc4[nH]ncc4c3)c(C)c(=O)c2c1 (single isomer, unassigned) [Example 132, 2-[1-[2-(1H-Indazol-5-yl)-3,6-dimethyl-4-oxo-chromen-8-yl]ethylamino]benzoic acid]	500 to 1000	< 500	< 50
Cc1cc(C(C)Nc2ccccc2C(=O)O)c2oc(-c3cc(C)c4nn(C)cc4c3)cc(=O)c2c1 (single isomer, unassigned) [Example 144, 2-[1-[2-(2,7-Dimethylindazol-5-yl)-6-methyl-4-oxo-chromen-8-yl]ethylamino]benzoic acid]	1000 to 5000	< 500	< 50
Cc1cc(C(C)Nc2ccccc2C(=O)O)c2oc(-c3ccc4c(c3)NC(=O)C4)cc(=O)c2c1 (single isomer, unassigned) [Example 115, 2-[1-[6-Methyl-4-oxo-2-(2-oxoindolin-6-yl)chromen-8-yl]ethylamino]benzoic acid]	1000 to 5000	< 500	100 to 500
Cc1cc(C(C)Nc2ccccc2C(=O)O)c2oc(-c3ccc4oc(=O)[nH]c4c3)cc(=O)c2c1 (single isomer, unassigned) [Example 24, 2-[1-[6-Methyl-4-oxo-2-(2-oxo-3H-1,3-benzoxazol-5-yl)chromen-8-yl]ethylamino]benzoic acid]	1000 to 5000	< 500	50 to 100
Cc1cc([C@@H](C)Nc2ccc(Cl)nc2C(=O)O)c2oc(-c3cc4ccccc4[nH]3)c(C)c(=O)c2c1 [Example 196, 6-Chloro-3-[[(1R)-1-[2-(1H-indol-2-yl)-3,6-dimethyl-4-oxo-chromen-8-yl]ethyl]amino]pyridine-2-carboxylic acid]	1000 to 5000	< 500	< 50
Cc1cc([C@@H](C)Nc2ccccc2C(=O)O)c2oc(-c3ccc4c(cnn4Cc4ccccc4)c3)c(C)c(=O)c2c1 [Example 211, 2-[[(1R)-1-[2-(1-Benzylindazol-5-yl)-3,6-dimethyl-4-oxo-chromen-8-yl]ethyl]amino]benzoic acid]	500 to 1000	< 500	50 to 100
Cc1cc([C@@H](C)Nc2ccccc2C(=O)O)c2oc(-c3cc4cnccc4s3)c(C)c(=O)c2c1 [Example 203, 2-[[(1R)-1-(3,6-Dimethyl-4-oxo-2-thieno[3,2-c]pyridin-2-yl-chromen-8-yl)ethyl]amino]benzoic acid]	< 500	< 500	< 50
